Like-named read-outs stand apart in the source and are kept apart here.
Legend:
human AR [1] = target: T1, human AR (Homo sapiens, UniProt P10275); experiment: AR antagonism assay: inhibition of transcriptional activation of AR (Probasin-luc reporter, COS-1 cells); format: cell-based; settings: compound 10.0 μM; relative luciferase response: 100% for testosterone (no antiandrogenic effect), 0% for complete antagonism
T1 construct: expressed in transfected cells; host or cells: COS-1
T1 sequence (P10275 1-920): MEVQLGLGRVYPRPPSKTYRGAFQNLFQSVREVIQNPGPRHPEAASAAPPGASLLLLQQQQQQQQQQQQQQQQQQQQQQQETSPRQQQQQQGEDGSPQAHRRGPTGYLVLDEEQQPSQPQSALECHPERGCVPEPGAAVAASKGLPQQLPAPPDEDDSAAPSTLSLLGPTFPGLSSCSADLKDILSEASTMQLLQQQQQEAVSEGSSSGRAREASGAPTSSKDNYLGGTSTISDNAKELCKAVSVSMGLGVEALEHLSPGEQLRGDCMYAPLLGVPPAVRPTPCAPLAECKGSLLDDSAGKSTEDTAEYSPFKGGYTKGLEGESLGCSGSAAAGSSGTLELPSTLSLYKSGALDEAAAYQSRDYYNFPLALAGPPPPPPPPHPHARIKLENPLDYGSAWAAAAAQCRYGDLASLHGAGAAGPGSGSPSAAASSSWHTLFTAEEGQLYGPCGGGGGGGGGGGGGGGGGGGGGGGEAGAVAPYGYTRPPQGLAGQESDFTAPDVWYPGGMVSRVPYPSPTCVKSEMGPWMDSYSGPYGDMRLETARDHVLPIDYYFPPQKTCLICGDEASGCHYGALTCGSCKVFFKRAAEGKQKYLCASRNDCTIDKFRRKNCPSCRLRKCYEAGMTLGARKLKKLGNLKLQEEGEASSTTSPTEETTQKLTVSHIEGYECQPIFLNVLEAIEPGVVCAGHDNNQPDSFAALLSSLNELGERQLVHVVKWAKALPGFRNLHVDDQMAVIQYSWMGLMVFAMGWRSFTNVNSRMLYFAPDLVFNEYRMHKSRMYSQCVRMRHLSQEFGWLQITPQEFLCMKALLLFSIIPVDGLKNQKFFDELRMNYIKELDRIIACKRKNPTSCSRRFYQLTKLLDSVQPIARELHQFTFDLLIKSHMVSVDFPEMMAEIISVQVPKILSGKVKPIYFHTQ
How it was run: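 COS-1 cells transfected 24 h with human AR vector, Probasin-luc reporter and β-gal control, then exposed 18 h at 37 °C to 10 μM compound plus 100 nM testosterone. Luciferase read-out normalised to β-galactosidase activity and protein content.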

human AR [2] = target: T1, human AR; experiment: Competitive AR binding assay against [3H]-R1881 in transiently transfected COS-1 cells; settings: compound 13.4 μM, [3H]-R1881 1.34 nM, complete inhibition equals 100%, read-out: Inhibition of [3H]-R1881 binding at 1.34 nM ± S.D.
How it was run: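 COS-1 cells transfected 24 h with human AR vector, then after 36 h exposed 2 h at 37° C to compound at 10000-fold molar excess over 1.34 nM [3H]-R1881. Cell-bound radioactivity counted in triplicate; result given as % inhibition of labelled R1881 binding.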

In the case of `CC(C)(O)C(=O)Nc1ccc([N+](=O)[O-])c(C(F)(F)F)c1` [Hydroxyflutamide, reference compound], the “AR antagonism against 100 nM testosterone ± S.D.” value (human AR [1]) is reported as 13.0 ± 1.1%, the inhibition at 13.4 µM (human AR [2]; Table 1) is reported as 91.1 ± 2.2% and the inhibition at 13.4 µM (human AR [2]; Table 2) is reported as 94.8 ± 0.8%. The inhibition at 13.4 µM (human AR [2]; Table 3) was 95.2 ± 2.9%.
